Several values for one entry are separate records, joined by “and”; a condition that tells them apart may be missing. Identical values can stand only once. ± gives the expanded uncertainty stated by the source.
Test: Henry's Law constant (molality scale); of the first substance listed, at infinite dilution; xn = mol fraction of the nth substance listed
Conditions: Liquid, Chromatography, x1 = 0

SMILES	Henry's Law constant (274.15 K)	Henry's Law constant (294.65 K)	Henry's Law constant (296.15 K)	Henry's Law constant (310.15 K)	Henry's Law constant (320.15 K)	Henry's Law constant (331.15 K)	Henry's Law constant (313.15 K)	Henry's Law constant (326.15 K)	Henry's Law constant (273.25 K)	Henry's Law constant (298.15 K)	Henry's Law constant (311.15 K)	Henry's Law constant (332.15 K)	Henry's Law constant (333.15 K)
C1COCCO1 [1,4-dioxane] + O	0.0629 ± 0.019 kPa·kg/mol	0.482 kPa·kg/mol and 0.35 kPa·kg/mol	0.419 ± 0.13 kPa·kg/mol	0.84 ± 0.25 kPa·kg/mol	2 ± 0.6 kPa·kg/mol	3.92 ± 1.2 kPa·kg/mol	–	–	–	–	–	–	–
BrCBr [dibromomethane] + O	24 ± 7.2 kPa·kg/mol	67.5 kPa·kg/mol and 64.7 kPa·kg/mol	72.9 ± 22 kPa·kg/mol	154 ± 46 kPa·kg/mol	278 ± 83 kPa·kg/mol	444 ± 130 kPa·kg/mol	–	–	–	–	–	–	–
FC(Cl)(Cl)Cl [trichlorofluoromethane] + O	987 ± 300 kPa·kg/mol	–	–	–	–	–	8110 ± 2400 kPa·kg/mol	15600 ± 4700 kPa·kg/mol	–	–	–	–	–
C#CCO [2-propyn-1-ol] + O	–	–	–	–	–	–	–	–	0.039 ± 0.012 kPa·kg/mol	0.255 ± 0.076 kPa·kg/mol	0.754 ± 0.23 kPa·kg/mol	3.71 ± 1.1 kPa·kg/mol	–
CC(C)(C)O [2-methylpropan-2-ol] + O	–	–	–	–	–	–	–	–	0.055 ± 0.017 kPa·kg/mol	1.25 ± 0.37 kPa·kg/mol	3.19 ± 0.96 kPa·kg/mol	6.96 ± 2.1 kPa·kg/mol	–
ClCCl [dichloromethane] + O	85.1 ± 26 kPa·kg/mol	222 kPa·kg/mol and 214 kPa·kg/mol	250 ± 75 kPa·kg/mol	–	–	–	523 ± 160 kPa·kg/mol	686 ± 210 kPa·kg/mol	–	–	–	–	–
ClC=C(Cl)Cl [trichloroethene] + O	249 ± 75 kPa·kg/mol	711 kPa·kg/mol and 721 kPa·kg/mol	691 ± 210 kPa·kg/mol	2110 ± 630 kPa·kg/mol	–	4620 ± 1400 kPa·kg/mol	1670 ± 500 kPa·kg/mol	2630 ± 790 kPa·kg/mol	–	–	–	–	–
CCC#N [propanenitrile] + O	0.302 ± 0.091 kPa·kg/mol	2.3 kPa·kg/mol and 2.2 kPa·kg/mol	2.78 ± 0.83 kPa·kg/mol	5.36 ± 1.6 kPa·kg/mol	11 ± 3.3 kPa·kg/mol	14 ± 4.2 kPa·kg/mol	–	–	–	–	–	–	–
C=CC#N [acrylonitrile] + O	1.24 ± 0.37 kPa·kg/mol	5.23 kPa·kg/mol and 8.07 kPa·kg/mol	9.19 ± 2.8 kPa·kg/mol	25.3 ± 7.6 kPa·kg/mol	40 ± 12 kPa·kg/mol	73.9 ± 22 kPa·kg/mol	–	–	–	–	–	–	97.8 ± 29 kPa·kg/mol
CC(Cl)Cl [1,1-dichloroethane] + O	188 ± 56 kPa·kg/mol	–	–	–	–	–	953 ± 290 kPa·kg/mol	1560 ± 470 kPa·kg/mol	–	–	–	–	–
c1ccc2ccccc2c1 [naphthalene] + O	5 ± 1.5 kPa·kg/mol	31.7 kPa·kg/mol and 17.8 kPa·kg/mol	34.7 ± 10 kPa·kg/mol	90.2 ± 27 kPa·kg/mol	116 ± 35 kPa·kg/mol	196 ± 59 kPa·kg/mol	–	–	–	–	–	–	278 ± 83 kPa·kg/mol
CCOCC [diethyl ether] + O	16 ± 5 kPa·kg/mol	68 kPa·kg/mol and 70 kPa·kg/mol	77 ± 23 kPa·kg/mol	206 ± 62 kPa·kg/mol	427 ± 130 kPa·kg/mol	803 ± 240 kPa·kg/mol	–	–	–	–	–	–	–
CC=C(Cl)Cl [1,1-dichloro-1-propene] + O	556 ± 170 kPa·kg/mol	1480 kPa·kg/mol and 1360 kPa·kg/mol	1460 ± 440 kPa·kg/mol	–	–	–	3190 ± 960 kPa·kg/mol	5570 ± 1700 kPa·kg/mol	–	–	–	–	–
Cl/C=C\Cl [(Z)-1,2-dichloroethene] + O	131 ± 39 kPa·kg/mol	317 kPa·kg/mol and 330 kPa·kg/mol	405 ± 120 kPa·kg/mol	–	–	–	636 ± 190 kPa·kg/mol	1110 ± 330 kPa·kg/mol	–	–	–	–	–
BrC(Br)Br [tribromomethane] + O	7.47 ± 2.2 kPa·kg/mol	46.4 kPa·kg/mol and 29.9 kPa·kg/mol	50.9 ± 15 kPa·kg/mol	120 ± 36 kPa·kg/mol	200 ± 60 kPa·kg/mol	328 ± 98 kPa·kg/mol	–	–	–	–	–	–	–
CCCCC(CC)CO (stereo not drawn) [2-ethyl-1-hexanol] + O	–	–	–	–	–	–	–	–	0.0797 ± 0.032 kPa·kg/mol	1.91 ± 0.76 kPa·kg/mol	4.09 ± 1.6 kPa·kg/mol	100 ± 40 kPa·kg/mol	–

SMILES	Henry's Law constant (274.15 K)	Henry's Law constant (294.65 K)	Henry's Law constant (296.15 K)	Henry's Law constant (310.15 K)	Henry's Law constant (320.15 K)	Henry's Law constant (331.15 K)	Henry's Law constant (313.15 K)	Henry's Law constant (326.15 K)	Henry's Law constant (273.25 K)	Henry's Law constant (298.15 K)	Henry's Law constant (311.15 K)	Henry's Law constant (332.15 K)	Henry's Law constant (333.15 K)
ClC(Cl)Br [bromodichloromethane] + O	60.5 ± 18 kPa·kg/mol	165 kPa·kg/mol and 162 kPa·kg/mol	172 ± 51 kPa·kg/mol	347 ± 100 kPa·kg/mol	–	973 ± 290 kPa·kg/mol	–	–	–	–	–	–	–
ClCCCl [1,2-dichloroethane] + O	42.9 ± 13 kPa·kg/mol	98.2 kPa·kg/mol and 102 kPa·kg/mol	105 ± 32 kPa·kg/mol	211 ± 63 kPa·kg/mol	389 ± 120 kPa·kg/mol	517 ± 160 kPa·kg/mol	–	–	–	–	–	–	–
CC(Cl)(Cl)Cl [1,1,1-trichloroethane] + O	484 ± 150 kPa·kg/mol	1410 kPa·kg/mol and 1210 kPa·kg/mol	1430 ± 430 kPa·kg/mol	–	–	–	2680 ± 800 kPa·kg/mol	4510 ± 1400 kPa·kg/mol	–	–	–	–	–
ClC(Cl)C(Cl)(Cl)Cl [pentachloroethane] + O	43.4 ± 17 kPa·kg/mol	133 kPa·kg/mol and 141 kPa·kg/mol	163 ± 65 kPa·kg/mol	268 ± 110 kPa·kg/mol	505 ± 200 kPa·kg/mol	989 ± 400 kPa·kg/mol	471 ± 190 kPa·kg/mol	1070 ± 430 kPa·kg/mol	–	–	–	–	–
ClC(Cl)(Cl)Cl [tetrachloromethane] + O	696 ± 210 kPa·kg/mol	1770 kPa·kg/mol and 1580 kPa·kg/mol	1690 ± 510 kPa·kg/mol	–	–	–	4230 ± 1300 kPa·kg/mol	7590 ± 2300 kPa·kg/mol	–	–	–	–	–
Cc1ccc(C(C)C)cc1 [1-(1-methylethyl)-4-methylbenzene] + O	157 ± 63 kPa·kg/mol	389 kPa·kg/mol and 469 kPa·kg/mol	502 ± 200 kPa·kg/mol	777 ± 310 kPa·kg/mol	–	1830 ± 730 kPa·kg/mol	2150 ± 860 kPa·kg/mol	3440 ± 1400 kPa·kg/mol	–	–	–	–	–
O=[N+]([O-])c1ccccc1 [nitrobenzene] + O	0.175 ± 0.053 kPa·kg/mol	1.06 kPa·kg/mol and 1.11 kPa·kg/mol	2.58 ± 0.78 kPa·kg/mol	4.13 ± 1.2 kPa·kg/mol	8.57 ± 2.6 kPa·kg/mol	17.6 ± 5.3 kPa·kg/mol	–	–	–	–	–	–	–
ClC/C=C/CCl [trans-1,4-dichloro-2-butene] + O	3.9 ± 1.6 kPa·kg/mol	28.2 kPa·kg/mol and 17.7 kPa·kg/mol	31.6 ± 13 kPa·kg/mol	96.4 ± 39 kPa·kg/mol	175 ± 70 kPa·kg/mol	155 ± 62 kPa·kg/mol	–	–	–	–	–	–	–
Cl/C=C/Cl [(E)-1,2-dichloroethene] + O	311 ± 93 kPa·kg/mol	956 kPa·kg/mol and 852 kPa·kg/mol	995 ± 300 kPa·kg/mol	–	–	–	1820 ± 540 kPa·kg/mol	2900 ± 870 kPa·kg/mol	–	–	–	–	–
ClC(Cl)C(Cl)Cl [1,1,2,2-tetrachloroethane] + O	3.6 ± 1.1 kPa·kg/mol	31.2 kPa·kg/mol and 17.9 kPa·kg/mol	34.4 ± 10 kPa·kg/mol	99 ± 30 kPa·kg/mol	156 ± 47 kPa·kg/mol	262 ± 79 kPa·kg/mol	–	–	–	–	–	–	–
CC(=O)CC(C)C [4-methylpentan-2-one] + O	0.834 ± 0.25 kPa·kg/mol	8.08 kPa·kg/mol and 8.27 kPa·kg/mol	9.34 ± 2.8 kPa·kg/mol	37.2 ± 11 kPa·kg/mol	72.5 ± 22 kPa·kg/mol	164 ± 49 kPa·kg/mol	–	–	–	–	–	–	236 ± 71 kPa·kg/mol
Clc1ccccc1Cl [1,2-dichlorobenzene] + O	41.1 ± 12 kPa·kg/mol	102 kPa·kg/mol and 115 kPa·kg/mol	119 ± 36 kPa·kg/mol	208 ± 62 kPa·kg/mol	350 ± 100 kPa·kg/mol	510 ± 150 kPa·kg/mol	–	–	–	–	–	–	–
CCCCc1ccccc1 [butylbenzene] + O	174 kPa·kg/mol	–	458 kPa·kg/mol	481 kPa·kg/mol	–	1280 kPa·kg/mol	2290 kPa·kg/mol	3470 kPa·kg/mol	–	–	–	–	–
ClCC(Cl)CCl [1,2,3-trichloropropane] + O	2.98 ± 0.89 kPa·kg/mol	23 kPa·kg/mol and 13.6 kPa·kg/mol	28.3 ± 8.5 kPa·kg/mol	78.2 ± 23 kPa·kg/mol	113 ± 34 kPa·kg/mol	208 ± 62 kPa·kg/mol	–	–	–	–	–	–	370 ± 110 kPa·kg/mol
CC(Cl)CCl (stereo not drawn) [1,2-dichloropropane] + O	70.7 ± 21 kPa·kg/mol	217 kPa·kg/mol and 198 kPa·kg/mol	225 ± 67 kPa·kg/mol	418 ± 130 kPa·kg/mol	–	1210 ± 360 kPa·kg/mol	–	699 ± 210 kPa·kg/mol	–	–	–	–	–
CCCl [chloroethane] + O	522 ± 160 kPa·kg/mol	–	–	–	–	–	1950 ± 580 kPa·kg/mol	2940 ± 880 kPa·kg/mol	–	–	–	–	–
